Columns and labels:
[1] = tested on: Lewis X Brown Norway F1 hearts transplanted to Lewis recipients; assay: Rat cardiac allograft model, Allograft Study 1 (summary across three studies); type: in vivo; conditions: for absolute cardiac allograft survival (last day of graft survival): vehicle day +9
Source text: Allograft rejection is defined as the expression of an immune reaction of the recipient, against foreign antigens of the transplanted tissue. This reaction is mediated by T lymphocytes. Cell adhesion events are of critical importance in the T-cell recognition of alloantigens, the trafficking of recipient immune and inflammatory cells into the graft, and the execution of cell-mediated effector functions. […] This beneficial therapeutic effect correlates with decreased infiltration by α4β1 positive cells, deposition of CS1-FN, and endothelial staining for VCAM-1, as determined by immunohistology/RNAse protection assay.
To further evaluate the therapeutic potential of α4β1 targeted therapy in transplantation rejection, three studies were conducted in a well-defined rat cardiac transplant model. The following report summarizes the data across all three studies.

[2] = tested on: rat cardiac allografts; assay: Rat cardiac allograft study, Allograft Study 3 (Table 21); type: in vivo; conditions: for number of surviving grafts within each group / percent of surviving grafts within a group: s.c., GG5/3 3 mg/kg, compound 30 mg/kg
Procedure: Cardiac allografts were established. […] A total of 20 allografts, amongst 4 groups, were evaluated in the study.

[3] = tested on: rat cardiac allografts; assay: Rat cardiac allograft study, Allograft Study 2 (Table 20); conditions: for number of surviving grafts within each group: s.c., GG5/3 3 mg/kg, compounds 30 mg/kg;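 on all read-outs here: lewis x Brown Norway F1 hearts grafted abdominally into male Lewis rats, palpated daily, rejection meaning complete loss of heartbeat, day 0 being surgery day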
Procedure: Hearts from Lewis X Brown Norway F1 hybrids were transplanted to the abdominal great vessels of Lewis recipients using standard microvascular techniques. Both rat strains were male inbred rats, weighing 200-300 g. Food and water was available at all times except during surgical and dosing procedures. The day of transplantation was noted as day 0. […] Allograft survival in the rats was evaluated by daily palpation of the transplanted heart through the recipient's flank. Rejection was taken as the day of complete cessation of the graft's heart beat. Upon determination of rejection, the abdomen of the recipient was incised and retracted to confirm cessation of the heart beat in the transplanted heart. If cessation of the heart beat was not confirmed the abdomen was surgically closed, and the grafted heart was evaluated daily.
Cardiac allografts were established. Dosing of compounds began on day 0, prior to transplantation and continued through day +10. […] The vehicle control, 10% ethanol/corn oil, was administered s.c., every 12 hours, day 0 through day +10. The antibody, GG5/3 in 0.9% saline, was administered at 3 mg/kg, s.c., on day 0, +3, +7 and +10. All GG5/3 animals received twice daily s.c. injections of 0.9% saline, every 12 hours, throughout day 0 through day +10. The vehicle control, 0.9% saline, was administered daily, s.c., day 0 through day +10. All dosing solutions were formulated daily at a constant dose volume of 5 ml/kg. The site of injection was rotated at each injection through four possible sites: right and left fore flank, right and left rear flank. A total of 28 allografts, amongst 5 groups, were evaluated in the study. Group 1, consisted of 6 animals treated with the monoclonal antibody, GG5/3. […] Allograft survival was evaluated by daily palpation of the transplanted heart through the recipient's flank. Rejection was taken as the day of complete cessation of graft's heart beat. Upon determination of rejection, the abdomen of the recipient was incised to confirm cessation of the heart beat in the transplanted heart. If cessation of the graft's heart beat was not confirmed the abdomen was surgically closed, and the graft was evaluated daily.

[4] = tested on: rat cardiac allografts; assay: Rat cardiac allograft study, Allograft Study 4 (Table 22);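 further: heterotopic abdominal heart transplants from Lewis × Brown Norway F1 donors into male Lewis rats, graft beating checked daily by flank palpation, rejection defined as complete stop of heartbeat, transplant day 0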; conditions: 30 mg/kg s.c. every 12 h, day -2 to +10
Procedure: Hearts from Lewis X Brown Norway F1 hybrids were transplanted to the abdominal great vessels of Lewis recipients using standard microvascular techniques. Both rat strains were male inbred rats, weighing 200-300 g. Food and water was available at all times except during surgical and dosing procedures. The day of transplantation was noted as day 0. Twelve hours following the last dose approximately 1 ml of blood was collected into lithium/heparin anti-coagulant tubes. If any graft was rejected prior to the last day of dosing, blood samples were taken 12 hours after dosing on the day that graft rejection was noted. All blood samples were centrifuged at 3000 rpm for 10 minutes and the plasma was harvested, frozen on dry ice and stored frozen at −20 C prior to analysis. Allograft survival in the rats was evaluated by daily palpation of the transplanted heart through the recipient's flank. Rejection was taken as the day of complete cessation of the graft's heart beat. Upon determination of rejection, the abdomen of the recipient was incised and retracted to confirm cessation of the heart beat in the transplanted heart. If cessation of the heart beat was not confirmed the abdomen was surgically closed, and the grafted heart was evaluated daily.
Cardiac allografts were established. Dosing of compounds began on day −2, 2 days prior to transplantation and continued through day +10. […] The vehicle control, 0.9% saline, pH adjusted to a value of 5, to match the dosing solution containing the N-[N-(3-pyridinesulfonyl)-L-3,3-dimethyl-4-thiaprolyl]-0-[1-methylpiperazin-4-ylcarbonyl]-L-tyrosine isopropyl ester, was administered via the same route, i.e. every 12 hours, day −2 through day +10. The antibody, GG5/3 in 0.9% saline, was administered at 3 mg/kg, s.c., on day 0, +3, +7 and +10. All GG5/3 animals received twice daily s.c. injections of 0.9% saline, every 12 hours, from day −2 through day +10. The vehicle control, 0.9% saline, was administered daily, s.c., day 0 through day +10. All dosing solutions were formulated daily at a constant dose volume of 5 ml/kg. The site of injection was rotated at each injection through four possible sites: right and left fore flank, right and left rear flank. A total of 21 allografts, amongst 5 groups, were evaluated in the study. […] Two animals within the 0.9% saline group received saline adjusted to a pH a value of 5. (The pH value of the N-[N-(3-pyridinesulfonyl)-L-3,3-dimethyl-4-thiaprolyl]-0-[1-methylpiperazin-4-ylcarbonyl]-L-tyrosine isopropyl ester dosing solution.) The remaining two animals received saline of pH 7. Group 2 consisted of 6 animals treated with the monoclonal antibody, GG5/3. […] Twelve hours following the last dose approximately 1 ml of blood was collected into lithium/heparin anti-coagulant tubes. If any graft was rejected prior to the last day of dosing, blood samples were taken 12 hours after dosing on the day that graft rejection was noted. All samples were centrifuged at 3000 rpm for 10 minutes and the plasma was harvested, frozen on dry ice and stored frozen at −20 C prior to dispatch for analysis. Allograft survival in the rats was evaluated by daily palpation of the transplanted heart through the recipient's flank. Rejection was taken as the day of complete cessation of graft's heart beat. Upon determination of rejection, the abdomen of the recipient was incised to confirm cessation of the heart beat in the transplanted heart. If cessation of the heart beat was not confirmed the abdomen was surgically closed, and the graft was evaluated daily.

[5] = tested on: rat cardiac allografts; assay: Rat cardiac allograft study, Allograft Study 5, dose response (Table 23); type: in vivo

## Cc1ccc(S(=O)(=O)N2CCC[C@H]2C(=O)N[C@@H](Cc2ccc(OC(=O)N3CCN(CCO)CC3)cc2)C(=O)OC(C)(C)C)cc1
other
  melting point: 158 to 160 °C

## CC(C)OC(=O)[C@H](Cc1ccc(OC(=O)N(C)C)cc1)NC(=O)[C@H]1N(S(=O)(=O)c2cnn(C)c2)CSC1(C)C
[1]
  absolute cardiac allograft survival (last day of graft survival): 37 day
[2]; Day 0
  number of surviving grafts within each group: 6
  percent of surviving grafts within a group: 100%
[2]; Day 1
  number of surviving grafts within each group: 6
  percent of surviving grafts within a group: 100%
[2]; Day 2
  number of surviving grafts within each group: 6
  percent of surviving grafts within a group: 100%
[2]; Day 3
  number of surviving grafts within each group: 6
  percent of surviving grafts within a group: 100%
[2]; Day 4
  number of surviving grafts within each group: 6
  percent of surviving grafts within a group: 100%
[2]; Day 5
  number of surviving grafts within each group: 6
  percent of surviving grafts within a group: 100%
[2]; Day 6
  number of surviving grafts within each group: 6
  percent of surviving grafts within a group: 100%
[2]; Day 7
  number of surviving grafts within each group: 6
  percent of surviving grafts within a group: 100%
[2]; Day 8
  number of surviving grafts within each group: 6
  percent of surviving grafts within a group: 100%
[2]; Day 9
  number of surviving grafts within each group: 4
  percent of surviving grafts within a group: 67%
[2]; Day 10
  number of surviving grafts within each group: 4
  percent of surviving grafts within a group: 67%
[2]; Day 11
  number of surviving grafts within each group: 3
  percent of surviving grafts within a group: 50%
[2]; Day 12
  number of surviving grafts within each group: 3
  percent of surviving grafts within a group: 50%
[2]; Day 13
  number of surviving grafts within each group: 1
  percent of surviving grafts within a group: 16%
[2]; Day 14
  number of surviving grafts within each group: 1
  percent of surviving grafts within a group: 16%
[2]; Day 15
  number of surviving grafts within each group: 1
  percent of surviving grafts within a group: 16%
[2]; Day 16
  number of surviving grafts within each group: 1
  percent of surviving grafts within a group: 16%
[2]; Day 17
  number of surviving grafts within each group: 0
  percent of surviving grafts within a group: 0%
[2]; Day 18
  number of surviving grafts within each group: 0
  percent of surviving grafts within a group: 0%
[2]; Day 19
  number of surviving grafts within each group: 0
  percent of surviving grafts within a group: 0%
[2]; compound 30 mg/kg s.c. every 12 h, day -2 to +10, GG5/3 3 mg/kg s.c. day 0, +3, +7, +10
  graft acceptance out to day: 16 days
[3]; Day 0
  number of surviving grafts within each group: 6
[3]; Day 1
  number of surviving grafts within each group: 6
[3]; Day 2
  number of surviving grafts within each group: 6
[3]; Day 3
  number of surviving grafts within each group: 6
[3]; Day 4
  number of surviving grafts within each group: 6
[3]; Day 5
  number of surviving grafts within each group: 6
[3]; Day 6
  number of surviving grafts within each group: 6
[3]; Day 7
  number of surviving grafts within each group: 6
[3]; Day 8
  number of surviving grafts within each group: 6
[3]; Day 9
  number of surviving grafts within each group: 6
[3]; Day 10
  number of surviving grafts within each group: 5
[3]; Day 11
  number of surviving grafts within each group: 3
[3]; Day 12
  number of surviving grafts within each group: 3
[3]; Day 13
  number of surviving grafts within each group: 2
[3]; Day 14
  number of surviving grafts within each group: 1
[3]; Day 15
  number of surviving grafts within each group: 1
[3]; Day 16
  number of surviving grafts within each group: 0
[3]; compounds 30 mg/kg s.c. every 12 h, GG5/3 3 mg/kg s.c. day 0, +3, +7, +10
  graft survival (in words): significant graft survival, resembling the results obtained from the GG5/3 group
[4]
  allograft acceptance compared with GG5/3: significantly prolong allograft acceptance beyond the level obtain with GG5/3
  graft survival rate on day +19: Fifty percent or greater
  longest surviving graft (one graft): 37 days

## CC(C)OC(=O)[C@H](Cc1ccc(OC(=O)N2CCN(C)CC2)cc1)NC(=O)[C@H]1N(S(=O)(=O)c2cccnc2)CSC1(C)C [Example 379]
[1]
  graft survival rate on day +14: 66%
  graft survival rate out to day +30: 33%
  absolute cardiac allograft survival (last day of graft survival): 41 day
[5]; 3 mg/kg s.c. every 12 h
  day rejection begins: 7 days
  day rejection is completed: ≤ 10 days
  protection against graft rejection: did not provide any protection against graft rejection
[5]; 10 mg/kg s.c. every 12 h
  day rejection begins: 8 days
[5]; 10 mg/kg s.c. every 12 h, by day +22
  graft survival rate: 20%
[5]; 30 mg/kg s.c. every 12 h
  graft acceptance (in words): prolonged graft acceptance
[5]; 30 mg/kg s.c. every 12 h, day +22, study still in progress
  graft survival rate: 83%
[4]
  allograft acceptance compared with GG5/3: significantly prolong allograft acceptance beyond the level obtain with GG5/3
  graft survival rate on day +19: Fifty percent or greater
  longest surviving graft (one graft): 41 days

Source: patent publication US20060004019A1, “Steroid sparing agents and methods of using same” (priority 2004, published 2006)
